Measurements: patent publication US8450352B2, “Thiazole compounds and their use for inhibiting phosphodiesterase 4, TNF-α, and IL-4” (Otsuka Pharmaceutical Co., Ltd., priority 2004, dated 2013)

Legend:
human PDE4D (HPDE4D) = biological target: T1, human PDE4D (HPDE4D) (Homo sapiens, UniProt Q08499); assay: Confirmatory test for phosphodiesterase (PDE) 4 inhibitory activity; type: biochemical; details: concentration that inhibits the PDE4 activity by 50%; PDE4D enzyme solution from transfected COS-7 cells, [3H]cAMP substrate
T1 construct: made in house; host or cells: COS-7 cells (African green monkey kidney), transient transfection; soluble supernatant of the homogenate
Text: Confirmatory Test for Phosphodiesterase (PDE) 4 Inhibitory Activity
(1) Mass Preparation of Plasmids
Plasmids containing genes coding for human PDE4D (HPDE4D) (stored in Otsuka America Pharmaceutical, Inc., Maryland Research Laboratories) were transformed into Escherichia coli, and mass cultured. The plasmids were then purified using EndoFree™ Plasmid Mix Kit (Qiagen).
(2) Mass expression and purification of PDE4D
African green monkey kidney-derived COS-7 cells (RCB 0539) were subcultured in a DMEM medium containing 100 units/ml penicillin, […] streptomycin and 10% FBS. The plasmids prepared in (1) were transfected into the cells, using LipofectAMINE™ 2000 Reagent (hereinafter referred to as “LF2000”, a product of Invitroge), according to the attached protocol. For comparison, pcDNA3.1 was transfected as a control vector. The COS-7 cells were inoculated into 10 cm diameter petri dishes on the day before transfection, so that the cells reached 90% confluence on the day of transfection. Twelve micrograms of the plasmids diluted with 0.9 ml of OPTI-MEM I (Invitrogen) (a plasmid solution; Solution A) and 30 μl of LF2000 diluted with 0.9 ml of OPTI-MEM I (a LF2000 solution; Solution B) were prepared per petri dish, and allowed to stand at room temperature for 5 minutes. Solutions A and B were then mixed together and allowed to stand at room temperature for 20 minutes. The mixture was added to the cultured cells, and incubation was performed overnight at 37° C. in an atmosphere of 5% CO2. The culture medium was changed on the following day, incubation was continued overnight, and the cells were collected by the following procedure. First, the cells were washed once with PBS (Sigma), and 2 ml of Trypsin-EDTA solution (Sigma) was added per petri dish, spread over the dish and removed. The cells were then allowed to stand at 37° C. for 2 to 3 minutes, separated from the petri dish and suspended in a medium. The suspension was placed in a centrifuge tube, and centrifuged at 200×g and 4° C. for 5 minutes. The supernatant was then removed. The cells were further washed with PBS and stored at −80° C. A KHEM buffer (50 mM Hepes, 50 mM KCl, 10 mM EGTA, 1.92 mM MgCl2, pH 7.2) containing 1 mM DTT, 40 μg/ml PMST, 156 μg/ml benzamidine, 1 μg/ml apotinin, 1 μg/ml leupeptin, 1 μg/ml pepstatin A, and 1 μg/ml antipain was added to the cells that had been stored, and the resulting mixture was placed in a glass homogenizer and homogenized on ice. The cell suspension was centrifuged at 100×g and 4° C. for 5 minutes, and the supernatant was further centrifuged at 100,000×g for 1 hour. Thereafter, the supernatant was dispensed into new tubes as a PDE4D enzyme solution, and stored in an ultra-low-temperature freezer. The protein concentration of the PDE4D enzyme solution was then measured.
(3) Determination of Dilution Factor of PDE4D Enzyme Solution
The PDE4D enzyme solution prepared in (2) was diluted 10-, 25-, 50-, 100-, 200-, 400- and 800-fold with 20 mM Tris-HCl (pH 7.4), and the PDE4D activities of the diluted enzyme solutions were measured by the method described in (4) to determine the optimum dilution factor to obtain a PDE4D enzyme solution in which degraded cAMP constituted 10 to 30% of the total cAMP.
(4) Measurement of PDE4D Inhibitory Activity
The necessary amount of each test substance was weighed out and dissolved in 100% DMSO to a concentration of 10 mM. The resulting solutions were stored in a freezer as test substance stock solutions. Before the inhibitory activity measurement, the stock solutions were melted, diluted 2-fold with 100% DMSO to a concentration of 5 mM, and further diluted with 100% DMSO to obtain test substance solutions with 10 graded concentrations. Each test substance solution was added to a 1.2 ml tube containing 23 μl of 20 mM Tris-HCl (pH 7.4). […]

TNF-α production = assay: Measurement of TNF-α production inhibitory activity; type: cell-based; details: PBMC; concentration that inhibits TNF-α production by 50%; LPS (1 μg/ml)-stimulated human peripheral blood mononuclear cells, 24 hours, ELISA
Method: Measurement of TNF-α Production Inhibitory Activity
The following tests were performed to evaluate TNF-α production inhibitory activity.
(1) Separation of Human Peripheral Blood Mononuclear Cells
A peripheral blood sample was obtained from a healthy adult donor who had signed a written informed consent. Thirty milliliters of the blood sample, which had been heparinized, was dispensed into a Leucosep tube (Greiner) containing 16 ml of a lymphocyte separation solution (Nakarai Chemical, Ltd.) under the filter barrier, and centrifuged at 1000×g for 15 minutes.
The intermediate layer corresponding to a mononuclear cell fraction was collected in a 50 ml centrifuge tube, and washed twice with a RPMI 1640 medium. After trypan blue staining, the viable count was determined and adjusted to 2×10^6 cells/ml with RPMI 1640 medium.
(2) Induction of TNF-α Production
E. coli (Serotype 055:B5)-derived LPS, which had been dissolved in a RPMI 1640 medium to a concentration of 5 mg/ml, sterilized by filtration and stored in a freezer, was melted and diluted with a RPMI 1640 medium to 10 μg/ml. The test substances were dissolved in DMSO to obtain solutions with a concentration of […] the final use concentration. One microliter of each of the graded concentration test substance solutions, 149 μl of RPMI 1640 medium, 50 μl of LPS solution (final concentration: 1 μg/ml), 50 μl of fetal bovine serum, and […] of the peripheral blood mononuclear cell suspension were dispensed to each well of a 48-well plate and incubated at 37° C. for 24 hours.
(3) Measurement of TNF-α Concentration
After completion of the incubation, the culture supernatant was collected from each well, and the TNF-α concentration in the supernatant was measured by ELISA method (Human TNF-α Eli-pair, Diaclone).

T1 sequence (Q08499 whole entry): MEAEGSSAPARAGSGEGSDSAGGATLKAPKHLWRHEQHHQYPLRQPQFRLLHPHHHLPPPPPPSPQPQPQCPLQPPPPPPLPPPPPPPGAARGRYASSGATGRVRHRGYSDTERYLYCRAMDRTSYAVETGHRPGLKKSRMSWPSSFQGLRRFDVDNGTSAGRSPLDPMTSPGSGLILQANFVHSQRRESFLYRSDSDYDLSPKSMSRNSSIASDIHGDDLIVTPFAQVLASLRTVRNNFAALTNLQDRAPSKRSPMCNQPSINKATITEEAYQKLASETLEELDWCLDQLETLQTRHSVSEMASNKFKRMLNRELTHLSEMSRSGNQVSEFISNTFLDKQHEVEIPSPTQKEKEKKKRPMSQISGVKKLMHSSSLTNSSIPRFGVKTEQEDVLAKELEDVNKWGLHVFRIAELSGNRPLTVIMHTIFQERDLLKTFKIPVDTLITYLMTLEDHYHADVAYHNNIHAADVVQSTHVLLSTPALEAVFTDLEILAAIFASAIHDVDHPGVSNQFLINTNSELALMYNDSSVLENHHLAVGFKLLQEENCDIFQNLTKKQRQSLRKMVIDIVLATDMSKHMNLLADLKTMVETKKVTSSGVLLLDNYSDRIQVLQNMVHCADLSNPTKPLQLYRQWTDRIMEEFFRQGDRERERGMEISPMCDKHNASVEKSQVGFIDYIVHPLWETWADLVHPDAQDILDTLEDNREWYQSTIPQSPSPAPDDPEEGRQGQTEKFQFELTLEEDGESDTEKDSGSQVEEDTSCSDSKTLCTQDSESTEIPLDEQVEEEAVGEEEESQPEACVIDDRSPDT

Structure (SMILES)	IC50 (human PDE4D (HPDE4D)) [nM]	melting point [°C]	IC50 (TNF-α production) [nM]
CCOc1ccc(-c2nc(/C=C/C(=O)c3ccccc3OC)cs2)cc1OCC [Example 1, (E)-3-[2-(3,4-diethoxyphenyl)thiazole-4-yl]-1-(2-methoxyphenyl)propenone]	23.6	130 to 131	8
CCOc1ccc(-c2nc(CCC(=O)c3ncccc3OC)cs2)cc1OCC [Example 88, 3-[2-(3,4-diethoxyphenyl)thiazole-4-yl]-1-(3-methoxypyridine-2-yl)-1-propanone]	0.4	79.2 to 79.7	–
CCOc1ccc(-c2nc(CCC(=O)c3ccccc3OC)cs2)cc1OCC [Example 89, 3-[2-(3,4-diethoxyphenyl)thiazole-4-yl]-1-(2-methoxyphenyl)-1-propanone]	–	68.9 to 69.3	7
CCOc1ccc(-c2nc(CCC(=O)c3ccccc3)cs2)cc1OCC [Example 91]	–	113.3 to 113.6	543

Second part, the molecule after the results:

IC50 (human PDE4D (HPDE4D)) [nM]	melting point [°C]	IC50 (TNF-α production) [nM]	Structure (SMILES)
7.2	169.4 to 171.2	–	CCOc1ccc(-c2nc(CCCc3ncccc3OC)cs2)cc1OCC.Cl.Cl [Example 238, 2-{3-[2-(3,4-diethoxyphenyl)thiazole-4-yl]propyl}-3-methoxypyridine dihydrochloride]
5.8	107.1 to 107.4	–	CCOc1ccc(-c2nc(CCC(=O)c3ccccc3C)cs2)cc1OCC [Example 107]
29	91.7 to 93	–	CCOc1ccc(-c2nc(CCC(=O)c3ccccc3C(F)(F)F)cs2)cc1OCC [Example 99]
5.7	102.8 to 104.2	–	CCOc1ccc(-c2nc(CCC(=O)c3ccc(Cl)cc3OC)cs2)cc1OCC [Example 106]
9.7	113.7 to 114.8	–	CCOc1ccc(-c2nc(CCC(=O)c3ccccc3C#N)cs2)cc1OCC [Example 239, 2-{3-[2-(3,4-diethoxyphenyl)thiazole-4-yl]propionyl}benzonitrile]
